From patent US11090267B2, “Rapidly degrading embolic particles with therapeutic agent release” (priority 2014, dated 2021)

Assay: incubation in water at 37° C., crystal form conversion (micrographs)
Format: physicochemical

CC(=O)O[C@H]1C(=O)[C@@]2(C)[C@H]([C@H](OC(=O)c3ccccc3)[C@]3(O)C[C@H](OC(=O)[C@H](O)[C@@H](NC(=O)c4ccccc4)c4ccccc4)C(C)=C1C3(C)C)[C@]1(OC(C)=O)CO[C@@H]1C[C@@H]2O [crystalline anhydrous paclitaxel, paclitaxel]
conversion to dihydrate crystals upon incubation in water (as-received powder dispersed in water at 37° C., FIGS. 5 and 6): coalesce within hours to large needle-like dihydrate crystals

CC(=O)O[C@H]1C(=O)[C@@]2(C)[C@H]([C@H](OC(=O)c3ccccc3)[C@]3(O)C[C@H](OC(=O)[C@H](O)[C@@H](NC(=O)c4ccccc4)c4ccccc4)C(C)=C1C3(C)C)[C@]1(OC(C)=O)CO[C@@H]1C[C@@H]2O [amorphous paclitaxel, paclitaxel]
conversion to dihydrate crystals upon incubation in water (amorphous paclitaxel microparticles dispersed in PLGA matrix, water at 37C, FIG. 4): coalesce within hours into large, needle-like dihydrate crystals
